The subject of series [1] is HaCaT. Description: Induction of cell migration in human HacaT cells at 12.5 uM measured after 24 hrs by transwell assay. The format is functional.
Series [2] deals with HaCaT. As to the kind of experiment: Induction of wound healing in human HacaT cells assessed as increase in COL1A2 mRNA level at 12.5 uM by RT-PCR analysis. The format is functional, cell-based.
The subject of another series is Caco-2. As to the kind of experiment: Cytotoxicity against human Caco-2 cells assessed as cell viability at 3.12 to 50 uM measured after 48 hrs by MTT assay. Type of series: functional, cell-based. Conditions: dose 3.12-50 µM. For orientation: Tetrazolium dyes change colour on reduction, which living cells bring about.
The species entered for the next series is Mus musculus. As to the kind of experiment: Induction of wound healing in BALB/c mouse assessed as reduction in wound area after 6 days. Type of series: functional, organism-based. As to conditions: time 6.0 day.
Series [3] deals with NIH3T3. As to the kind of experiment: Induction of cell migration in mouse NIH3T3 cells at 12.5 uM measured after 24 hrs by transwell assay. Type of series: functional.
Series [4] has as its system NIH3T3. As to the kind of experiment: Cytotoxicity against mouse NIH3T3 cells assessed as cell viability at 3.12 to 50 uM measured after 48 hrs by MTT assay. The format is cell-based. As to conditions: nih3t3, 48 h, dose 3.12-50 µM.
For series [5], the system named is NIH3T3. As to the kind of experiment: Induction of wound healing in mouse NIH3T3 cells assessed as increase in ACTC1 mRNA level at 12.5 uM by RT-PCR analysis. The format is functional, cell-based.
Series [6] is described as follows: Induction of cell invasion in human HacaT cells at 12.5 uM measured after 24 hrs by transwell assay. Type of series: functional.
Series [7] concerns NIH3T3. Description: Induction of wound healing in mouse NIH3T3 cells assessed as increase in COL1A2 mRNA level at 12.5 uM by RT-PCR analysis. The format is functional, cell-based.
Series [8] can be described thus: Induction of cell invasion in mouse NIH3T3 cells at 12.5 uM measured after 24 hrs by transwell assay. The format is functional.
In series [9] the test system is HaCaT. Description: Induction of wound healing in human HacaT cells assessed as increase in ACTC1 mRNA level at 12.5 uM by RT-PCR analysis. The format is functional, cell-based.
In series [10] the test system is HaCaT. As to the kind of experiment: Cytotoxicity against human HacaT cells assessed as cell viability at 3.12 to 50 uM measured after 48 hrs by MTT assay. Type of series: cell-based. Conditions: dose 3.12-50 µM.

Active and inactive are the calls of the source. The calls are words filed in the database; no cut-off is given here.

Regarding `CC(C)[C@@H]1NC(=O)[C@@H](C(C)C)OC(=O)[C@H](C)N(C)C(=O)[C@H](Cc2ccccc2)NC(=O)[C@H](Cc2ccccc2)N(C)C1=O`, the Activity in the series with HaCaT [1] is recorded as 50%; in the series with NIH3T3 [3], 50%; in the series on NIH3T3 [4], “Non-Toxic”; in series [6] it was 50%; in series [8], 50%; with HaCaT [10], “Non-Toxic”. The result in the series with HaCaT [2], in the series listed under Mus musculus, in the series on NIH3T3 [5], in the series with NIH3T3 [7] and with HaCaT [9] was Active. Moreover, the outcome in the series on Caco-2 was inactive.
